According to patent US8372831B2, “Isoxazoline linked pyrrolo[2,1-c][1,4]benzodiazepine hybrids as potential anticancer agents and the process for preparation thereof” (Council of Scientific & Industrial Research, priority 2008, dated 2013):

Legend:
Assay type in all cases: cell-based, human
M14 = experiment: NCI SRB cytotoxicity, M14 (melanoma)
Experimental: (§1) Biological Activity: The in vitro biological activity studies were carried out at the National Cancer Institute, Maryland, USA.
(§2) The C8-linked isoxazoline-PBD hybrids have been tested against sixty human tumour cell lines derived from nine cancer types (leukemia, non-small cell lung cancer, colon cancer, CNS cancer, melanoma, ovarian cancer, renal cancer, prostate cancer and breast cancer) as per NCI protocol. For each compound, dose response curves for individual cell lines have been measured at a minimum of five concentrations at 10 fold dilutions. A protocol of 48 hrs continuous drug exposure has been used, and a sulforhodamine B (SRB) protein assay was used to estimate cell viability or growth. The concentration for 50% cell growth inhibition (GI50), total cell growth inhibition (TGI, 0% growth) and 50% cell death (LC50, […]) compared with the control has been calculated (FIG. 2).
(§3) Compound 5b and 9b have been evaluated for in vitro cytotoxicity in sixty cell lines from nine human cancer types of lung (Hop-62, NCI-H226, NCI-H522), leukemia (K-562, SR), colon (HCT-116, HCT-15, HCC-2998), CNS(SF-539), melanoma (SK-MEL-5, UACC-62, M14), ovarian (IGROV1), renal (A498), prostate (PC3) breast (BT-549, MDA-MB-435, HS578T) origin. The results are expressed as percent of cell growth determined relative to that of untreated control cells (Table 1).

K-562 = experiment: NCI SRB cytotoxicity, K-562 (leukemia)
Experimental: as §1, §2, §3

Leukemia = experiment: NCI SRB cytotoxicity, leukemia panel; conditions: average of six to eight different cancer cell lines; for Log10 LC50: 50% lethality
Experimental: as §1, §2, §3

SK-MEL-2 = experiment: NCI SRB cytotoxicity, SK-MEL-2 (melanoma); conditions: 48 hrs exposure
Experimental: as §1, §2, §3

MOLT-4 = experiment: NCI SRB cytotoxicity, MOLT-4 (leukemia); conditions: 48 hrs exposure
Experimental: as §1, §2, §3

HCC-2998 = experiment: NCI SRB cytotoxicity, HCC-2998 (colon)
Experimental: as §1, §2, §3

SN12C = experiment: NCI SRB cytotoxicity, SN12C (renal); conditions: 48 hrs exposure
Experimental: as §1, §2, §3

OVCAR-3 = experiment: NCI SRB cytotoxicity, OVCAR-3 (ovarian); conditions: 48 hrs exposure
Experimental: as §1, §2, §3

ACHN = experiment: NCI SRB cytotoxicity, ACHN (renal); conditions: 48 hrs exposure
Experimental: as §1, §2, §3

PC-3 = experiment: NCI SRB cytotoxicity, PC-3 (prostate)
Experimental: as §1, §2, §3

MDA-MB-468 = experiment: NCI SRB cytotoxicity, MDA-MB-468 (breast); conditions: 48 hrs exposure
Experimental: as §1, §2, §3

A498 = experiment: NCI SRB cytotoxicity, A498 (renal); conditions: 48 hrs exposure
Experimental: as §1, §2, §3

[1] = K-562, Leukemia, 48 hrs exposure
[2] = HCC-2998, Colon, 48 hrs exposure
[3] = PC-3, Prostate, 48 hrs exposure

| Structure (SMILES) | GI50 (M14; M14, Melanoma, 48 hrs exposure) [µM] | GI50 (M14; melanoma M14) [µM] | GI50 (K-562; [1]) [µM] | GI50 (K-562; leukemia K-562) [µM] | Log10 LC50 (Leukemia) [mol/L] | Log10GI50 (Leukemia) [mol/L] | GI50 (SK-MEL-2) [µM] | GI50 (MOLT-4) [µM] | GI50 (HCC-2998; [2]) [µM] | GI50 (HCC-2998; colon cancer HCC-2998) [µM] | GI50 (SN12C) [µM] | GI50 (OVCAR-3) [µM] | GI50 (ACHN) [µM] | GI50 (PC-3; [3]) [µM] | GI50 (PC-3; prostate PC-3) [µM] | GI50 (MDA-MB-468) [µM] | GI50 (A498) [µM] |
| --- | --- | --- | --- | --- | --- | --- | --- | --- | --- | --- | --- | --- | --- | --- | --- | --- | --- |
| COc1cc(C2=NOC(c3cc(OC)c(OC)c(OC)c3)C2)ccc1OCCCCOc1cc2c(cc1OC)C(=O)N1CCC[C@H]1C=N2 (stereo partly drawn) [Compound 5b, (11aS)-7-(methyloxy)-8-(4-[(2-(methyloxy)-4-5-[3,4,5-tri(methyloxy)phenyl]-4,5-dihydro-3-isoxazolylphenyl)oxy]butyloxy)-2,3,5,11a-tetrahydro-1H benzo[e]pyrrolo[1,2-a][1,4]diazepin-5-one] | 0.18 | 0.18 | 0.12 | 0.12 | −4.18 | −6.76 | 0.23 | 0.2 | 0.19 | 0.19 | 0.3 | 0.27 | 0.28 | 0.32 | 0.32 | 0.22 | – |
| COc1ccc(C2CC(c3ccc(OC)c(OC)c3OC)=NO2)cc1OCCCCOc1cc2c(cc1OC)C(=O)N1CCC[C@H]1C=N2 (stereo partly drawn) [Compound 9b, (11aS)-7-(methyloxy)-8-(4-[(2-(methyloxy)-5-3-[2,3,4-tri(methyloxy)phenyl]-4,5-dihydro-5-isoxazolylphenyl)oxy]butyloxy)-2,3,5,11a-tetrahydro-1H-benzo[e]pyrrolo[1,2-a][1,4]diazepin-5-one] | 1.73 | – | 1.26 | – | −4.37 | −5.83 | 2.03 | 1.85 | 1.58 | – | 1.58 | 1.94 | 2.41 | 0.58 | – | 1.34 | 1.72 |
